Data from PMC11219936, “Development of radioiodine-labeled mequitazine for evaluation of hepatic CYP2D activity” (Frontiers in Pharmacology, 2024).
Values belong to the compound of their own block, whether it stands above or below them.

Assays:
[1] = system: ^125I-BMQ-metabolizing CYP isoenzymes (pooled MLMs); experiment: Inhibition of ^125I-BMQ metabolism by specific CYP inhibitors and mequitazine in pooled MLMs; details: for percentage of metabolites produced from ^125I-BMQ: 37°C, 15 min; for inhibition at 15 min, 10 µM: mouse, pooled mouse liver microsomes, pH 7.4, probe ^125I-BMQ
Experimental: These specific inhibitors were used to identify the CYPs involved in the biotransformation of ^125I-BMQ. The inhibitors and mequitazine (self-inhibitor) were dissolved at a concentration of 10 μM (0.8% [v/v] final concentration DMSO).
Samples were incubated at 37°C for 15 min with gentle shaking, and the reaction was stopped by addition of 100 µL of ethanol and centrifugation at 18,000 g for 5 min. The final supernatant was analyzed by TLC using methanol/acetic acid at a 100:1 ratio. The percentages of ^125I-BMQ metabolites in each sample were then calculated (n = 3).

[2] = system: CYP (pooled mouse liver microsomes, MLMs); experiment: NADPH-mediated metabolism of ^125I-BMQ in pooled mouse liver microsomes, TLC analysis; assay type: in vitro ADME; details: 37°C, increase with reaction time
Experimental: Animal studies were approved by the Animal Care Committee at Kanazawa University (AP-173851) and conducted in accordance with international standards for animal welfare and institutional guidelines. For preparation of pooled mouse liver microsomes (MLMs), three 6-week-old male ddY mice (Japan SLC, Tokyo, Japan) were euthanized under anesthesia using isoflurane. The liver of each mouse was removed and weighed. After adding 3 mL of Krebs-Ringer’s phosphate buffer (pH 7.4) per gram of liver, the livers were pooled and homogenized using an ultrasonic homogenizer (SONIFIER250, Branson, MO, United States). The homogenate was centrifuged for 20 min at 9,000 g, and the supernatant was centrifuged for 60 min at 100,500 g. […] The resulting precipitate was obtained as microsomes, and the protein content was determined according to the bicinchoninic acid method ([Smith et al., 1985]). […]
To analyze CYP-mediated metabolism of ^125I-BMQ, nicotinamide adenine dinucleotide phosphate (NADPH) was used as an energy source for CYP. […] The samples were then centrifuged at 18,000 g for 5 min, and the supernatant of each sample was analyzed by thin layer chromatography (TLC). […] After development and complete drying, the TLC plates were cut into 21 fractions, and the radioactivity associated with each fraction was measured using a γ-ray counter (AccuFLEX γ 7000, Aloka, Tokyo, Japan). […]

[3] = Biological distribution of ^125I-BMQ in normal mice; assay type: in vivo, mouse; details: tail vein injection
Experimental: ^125I-BMQ was prepared to a specific radioactivity of 185 kBq/mL by adding saline. A total of 20 fasting 6-week-old male ddY mice were injected with ^125I-BMQ into the tail vein (18.5 kBq/100 µL/mouse), and after 2, 10, 30, 60, and 120 min, four mice each were euthanized under isoflurane, and blood, brain, thyroid, lung, heart, liver, gallbladder, stomach, pancreas, spleen, intestine, kidney, and urine tissue were collected. The tissue was weighted and the radioactivity was measured using a γ-ray counter to calculate the injected dose percent (%ID) or injected dose percent per gram of tissue (%ID/g).

[4] = Metabolism of ^125I-BMQ in vivo: TLC analysis of radioactive products in bile; parameters: species or system mouse
Experimental: ^125I-BMQ was prepared to a specific radioactivity of 10 MBq/mL by adding saline and injected via tail vein into three mice (2.0 MBq/200 µL/mouse). […] Radioactive products in the bile were analyzed by TLC using chloroform/acetic acid/H2O at a ratio of 60:40:1. Bile was spotted directly onto the TLC plate.

[5] = Preliminary study: effect of intraperitoneal paroxetine on hepatobiliary excretion of ^99mTc-PMT, SPECT dynamic imaging; details: CYP2D-inhibited mice, probe ^99mTc-PMT
Experimental: SPECT imaging of ^123I-BMQ was performed to visualize the accumulation of radioactive metabolite for the purpose of assessing CYP2D activity. […] In a preliminary study, the effect of intraperitoneal administration of paroxetine on hepatobiliary excretion was investigated.

[6] = NADPH [+], pooled MLMs, inhibitor 10 μM
[7] = mouse bile after iv injection, gallbladder removed, TLC

SMILES: [125I]c1ccc(C[N+]23CCC(CC2)C(CN2c4ccccc4Sc4ccccc42)C3)cc1 (stereo not drawn) [^125I-BMQ, ^125I-4-iodobenzylmequitazine]
- percentage of radioactive metabolite [2]: 3%–25%
- percentage of metabolites ([1]; NADPH [−], pooled MLMs, no inhibitor): 2.64%
- Biological distribution, Blood ([3]; 2 min): 1.71 ± 0.40 %ID/g
- Biological distribution, Brain ([3]; 2 min): 0.12 ± 0.02 %ID/g
- Biological distribution, Gall bladder ([3]; 2 min): 4.16 ± 4.04 %ID/g
- Biological distribution, Heart ([3]; 2 min): 0.78 ± 0.14 %ID/g
- Biological distribution, Intestines ([3]; 2 min): 1.52 ± 0.17 %ID/organ
- Biological distribution, Kidney ([3]; 2 min): 8.04 ± 0.39 %ID/g
- Biological distribution, Liver ([3]; 2 min): 10.58 ± 0.30 %ID/g
- Biological distribution, Lung ([3]; 2 min): 0.77 ± 0.12 %ID/g
- Biological distribution, Pancreas ([3]; 2 min): 0.51 ± 0.05 %ID/g
- Biological distribution, Spleen ([3]; 2 min): 0.46 ± 0.11 %ID/g
- Biological distribution, Stomach ([3]; 2 min): 0.14 ± 0.01 %ID/organ
- Biological distribution, Thyroid ([3]; 2 min): 1.19 ± 0.23 %ID/g
- Biological distribution, Urine ([3]; 2 min): 0.10 ± 0.10 %ID/organ
- Biological distribution, Blood ([3]; 10 min): 0.32 ± 0.07 %ID/g
- Biological distribution, Brain ([3]; 10 min): 0.08 ± 0.02 %ID/g
- Biological distribution, Gall bladder ([3]; 10 min): 13.28 ± 14.03 %ID/g
- Biological distribution, Heart ([3]; 10 min): 0.47 ± 0.11 %ID/g
- Biological distribution, Intestines ([3]; 10 min): 3.90 ± 1.55 %ID/organ
- Biological distribution, Kidney ([3]; 10 min): 7.84 ± 0.50 %ID/g
- Biological distribution, Liver ([3]; 10 min): 10.55 ± 0.48 %ID/g
- Biological distribution, Lung ([3]; 10 min): 0.46 ± 0.28 %ID/g
- Biological distribution, Pancreas ([3]; 10 min): 0.41 ± 0.03 %ID/g
- Biological distribution, Spleen ([3]; 10 min): 0.26 ± 0.01 %ID/g
- Biological distribution, Stomach ([3]; 10 min): 1.33 ± 1.08 %ID/organ
- Biological distribution, Thyroid ([3]; 10 min): 0.57 ± 0.15 %ID/g
- Biological distribution, Urine ([3]; 10 min): 0.06 ± 0.07 %ID/organ
- Biological distribution, Blood ([3]; 30 min): 0.30 ± 0.16 %ID/g
- Biological distribution, Brain ([3]; 30 min): 0.14 ± 0.10 %ID/g
- Biological distribution, Gall bladder ([3]; 30 min): 24.43 ± 6.95 %ID/g
- Biological distribution, Heart ([3]; 30 min): 0.52 ± 0.23 %ID/g
- Biological distribution, Intestines ([3]; 30 min): 7.06 ± 1.89 %ID/organ
- Biological distribution, Kidney ([3]; 30 min): 8.70 ± 1.50 %ID/g
- Biological distribution, Liver ([3]; 30 min): 8.45 ± 0.99 %ID/g
- Biological distribution, Lung ([3]; 30 min): 0.40 ± 0.20 %ID/g
- Biological distribution, Pancreas ([3]; 30 min): 0.63 ± 0.25 %ID/g
- Biological distribution, Spleen ([3]; 30 min): 0.24 ± 0.08 %ID/g
- Biological distribution, Stomach ([3]; 30 min): 0.42 ± 0.36 %ID/organ
- Biological distribution, Thyroid ([3]; 30 min): 1.16 ± 0.60 %ID/g
- Biological distribution, Urine ([3]; 30 min): 0.30 ± 0.26 %ID/organ
- Biological distribution, Blood ([3]; 60 min): 0.11 ± 0.01 %ID/g
- Biological distribution, Brain ([3]; 60 min): 0.05 ± 0.01 %ID/g
- Biological distribution, Gall bladder ([3]; 60 min): 23.28 ± 9.55 %ID/g
- Biological distribution, Heart ([3]; 60 min): 1.00 ± 0.13 %ID/g
- Biological distribution, Intestines ([3]; 60 min): 14.26 ± 1.26 %ID/organ
- Biological distribution, Kidney ([3]; 60 min): 18.07 ± 2.42 %ID/g
- Biological distribution, Liver ([3]; 60 min): 6.61 ± 0.90 %ID/g
- Biological distribution, Lung ([3]; 60 min): 0.55 ± 0.13 %ID/g
- Biological distribution, Pancreas ([3]; 60 min): 0.84 ± 0.29 %ID/g
- Biological distribution, Spleen ([3]; 60 min): 0.86 ± 0.12 %ID/g
- Biological distribution, Stomach ([3]; 60 min): 0.63 ± 0.41 %ID/organ
- Biological distribution, Thyroid ([3]; 60 min): 1.03 ± 0.21 %ID/g
- Biological distribution, Urine ([3]; 60 min): 0.47 ± 0.55 %ID/organ
- Biological distribution, Blood ([3]; 120 min): 0.09 ± 0.01 %ID/g
- Biological distribution, Brain ([3]; 120 min): 0.05 ± 0.01 %ID/g
- Biological distribution, Gall bladder ([3]; 120 min): 28.93 ± 14.65 %ID/g
- Biological distribution, Heart ([3]; 120 min): 0.92 ± 0.11 %ID/g
- Biological distribution, Intestines ([3]; 120 min): 16.36 ± 1.01 %ID/organ
- Biological distribution, Kidney ([3]; 120 min): 16.10 ± 2.91 %ID/g
- Biological distribution, Liver ([3]; 120 min): 6.02 ± 1.23 %ID/g
- Biological distribution, Lung ([3]; 120 min): 0.36 ± 0.06 %ID/g
- Biological distribution, Pancreas ([3]; 120 min): 0.73 ± 0.26 %ID/g
- Biological distribution, Spleen ([3]; 120 min): 0.83 ± 0.32 %ID/g
- Biological distribution, Stomach ([3]; 120 min): 0.44 ± 0.07 %ID/organ
- Biological distribution, Thyroid ([3]; 120 min): 1.14 ± 0.08 %ID/g
- Biological distribution, Urine ([3]; 120 min): 0.11 ± 0.01 %ID/organ
- radioactivity in the bile that was radioactive metabolite ([4]; gallbladder removed 60 min after the mice were injected): more than 90%
- ^125I-BMQ (parent) in bile [4, 7]: no ^125I-BMQ was detected
- percentage of metabolites of ^125I-BMQ in bile [4, 7]: > 90%

SMILES: CC(=O)N1CCN(c2ccc(OCC3COC(Cn4ccnc4)(c4ccc(Cl)cc4Cl)O3)cc2)CC1 (stereo not drawn) [ketoconazole]
- percentage of ^125I-BMQ compared with NADPH [+] [1, 6]: slightly lower, but not significantly

Further lines, with some results ahead:

- percentage of metabolites produced from ^125I-BMQ [1, 6]: 1.34%
- inhibition at 15 min, 10 µM [1]: 94%
SMILES: c1ccc2c(c1)Sc1ccccc1N2CC1CN2CCC1CC2 (racemic) [mequitazine, 10-[(3RS)-1-azabicyclo [2.2.2]oct-3-ylmethyl]-10H-phenothiazine]

- percentage of metabolites produced from ^125I-BMQ [1, 6]: 12.5%
- inhibition at 15 min, 10 µM [1]: 42%
SMILES: Fc1ccc([C@@H]2CCNC[C@H]2COc2ccc3c(c2)OCO3)cc1 [paroxetine]
- effect on biliary excretory function [5]: did not affect the biliary excretory function itself

- percentage of metabolites produced from ^125I-BMQ [1, 6]: 4.47%
- inhibition at 15 min, 10 µM [1]: 80%
SMILES: C=C[C@H]1C[N@@]2CC[C@H]1C[C@@H]2[C@@H](O)c1ccnc2ccc(OC)cc12 [quinidine]
